Tested on: C3H/HeNCrj mice
Experiment: Hair Regrowth Test
Type: in vivo
Conditions: 23 days of application; 0.1 ml of 0.1 w/v % ethanol solution on shaved back once a day; average of group (10 mice)
Experimental: By using C3H/HeNCrj mice, whose hair cycle was in resting stage, the experiment was performed according to the method of Ogawa et. al. (Normal and Abnormal Epidermal Differentiation, Edited by M. Seiji and I. A. Bernstein, Pages 159-170, 1982, Todai Shuppan). 10 mice were used in a group and the mice's hair within the area of 3×4 cm of the regions of back was shaved by a clipper and a shaver. 0.1 ml of ethanol (negative contrast) or ethanol solution of the tested compound (0.1 w/v %) was applied on the shaved portion once a day. For hair regrowth effect of the tested compound, the hair regrowth area of mice's region of back was measured and ratio of the hair regrowth area with respect to the shaved area was evaluated as hair regrowth area rate (%).

Row | Structure (SMILES) | Hair Regrowth Area Rate [%]
1 | CCCCCCCCCCCCCCCCCCNC(=O)Oc1ccccc1CCC(=O)NCCCN(C)C [Compound 1, 2-[3-[[3-(Dimethylamino)propyl]amino]-3-oxopropyl]phenyl N-octadecylcarbamate] | 69
2 | CCCCCCCCCCCCCCCCCCNC(=O)Oc1ccccc1CCC(=O)NCCCN(C)C.Cl [Compound 2, 2-[3-[[3-(Dimethylamino)propyl]amino]-3-oxopropyl]phenyl N-octadecylcarbamate hydrochloride] | 10

Same assay, conditions: 24 days of application; 0.1 ml of 0.1 w/v % ethanol solution on shaved back once a day; average of group (10 mice)

Row | Structure (SMILES) | Hair Regrowth Area Rate [%]
3 | CCCCCCCCCCCCCCCCCCNC(=O)Oc1ccccc1CCC(=O)N1CCN(C)CC1 [Compound 3, 2-[3-(4-Methylpiperazino)-3-oxopropyl]phenyl N-octadecylcarbamate] | 100
4 | CCCCCCCCCCCCCCCCCCNC(=O)Oc1ccccc1CCC(=O)N1CCN(C)CC1.Cl [Compound 4, 2-[3-(4-Methylpiperazino)-3-oxopropyl]phenyl N-octadecylcarbamate hydrochloride] | 100
5 | CCCCCCCCCCCCCCCCCCNC(=O)Oc1ccccc1CCC(=O)NCCCN1CCOCC1 [Compound 5, 2-{3-[(3-Morpholinopropyl)amino]-3-oxopropyl}phenyl N-octadecylcarbamate] | 16
6 | CCCCCCCCCCCCCCCCCCNC(=O)Oc1ccccc1CCC(=O)NCCCN1CCOCC1.Cl [Compound 6, 2-{3-[(3-Morpholinopropyl)amino]-3-oxopropyl}phenyl N-octadecylcarbamate hydrochloride] | 17
7 | CCCCCCCCCCCCCCCCCCOc1ccccc1CCC(=O)NCCCN(C)C.Cl [Compound 8, N-[3-(Dimethylamino)propyl]-3-[2-(octadecyloxy)phenyl]propanamide hydrochloride] | 100
8 | CCCCCCCCCCCCCCCCCCOc1ccccc1CCC(=O)NCCCN1CCOCC1.Cl [Compound 10, N-(3-Morpholinopropyl)-3-[2-(octadecyloxy)phenyl]propanamide hydrochloride] | 38
9 | CCCCCCCCCCCCCCCCCCOc1ccccc1CCC(=O)N1CCN(C)CC1.Cl [Compound 12, 1-(4-Methylpiperazino)-3-[2-(octadecyloxy)phenyl]-1-propanone hydrochloride] | 38
